In US10065990B2, “Cyclic peptide compound, and preparation method, pharmaceutical composition and use thereof” (HANGZHOU GUANYU BIO-MEDICAL CO., LTD, priority 2013, dated 2018):
Read-outs that look alike come from different tables or passages of the source.

Key:
[1] = test system: K562 (human leukemia cells); assay: MTT cancer cell growth inhibition; assay type: cell-based; settings: Homo sapiens, K562, 72 h, MTT, 72 hours incubation, K562 cells; read-out: GI50 K562
In short: (§1)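 Cells grown in DMEM or RPMI 1640 with 10% FBS were seeded at 1500/well and left overnight at 37° C., 5% CO2. Compounds at final 10^−5 to 10^−10 M were added in triplicate for 72 h. MTT was then added for 4 h, formazan dissolved in DMSO, and absorbance read at 570 nm to derive GI50.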

[2] = test system: Bel-7402 (human hepatoma cells); assay: MTT cancer cell growth inhibition; assay type: cell-based; settings: Homo sapiens, Bel-7402, 72 h, MTT, 72 hours incubation, Bel-7402 cells; read-out: GI50 Bel-7402
In short: as §1

[3] = test system: Huh-7 (human hepatoma cells); assay: MTT cancer cell growth inhibition; assay type: cell-based; settings: Homo sapiens, Huh-7, 72 h, MTT, 72 hours incubation, Huh-7 cells; read-out: GI50 Huh-7
In short: as §1

[4] = test system: MDA-MB-231 (breast cancer cells); assay: MTT cancer cell growth inhibition; assay type: cell-based; settings: Homo sapiens, MDA-MB-231, 72 h, read-out: GI50 MDA-MB-231, MTT, 72 hours incubation, MDA-MB-231 cells
In short: as §1

[5] = test system: N-87 (human gastric cancer cells); assay: MTT cancer cell growth inhibition; assay type: cell-based; settings: Homo sapiens, 72 h, MTT, 72 hours incubation, N-87 cells; read-out: GI50 N-87
In short: as §1

[6] = test system: HCC827 (human non-small cell lung cancer cells); assay: MTT cancer cell growth inhibition; assay type: cell-based; settings: Homo sapiens, HCC827, 72 h, MTT, 72 hours incubation, HCC827 cells; read-out: GI50 HCC827
In short: as §1

[7] = test system: A549 (human lung cancer cells); assay: MTT cancer cell growth inhibition; assay type: cell-based; settings: Homo sapiens, A549, 72 h, MTT, 72 hours incubation, read-out: GI50 A54
In short: as §1

[8] = test system: KBM5-T315I (human chronic myelogenous leukemia); assay: MTT cancer cell growth inhibition; assay type: cell-based; settings: Homo sapiens, 72 h, MTT, 72 hours incubation, KBM5-T315I cells; read-out: GI50 KBM5-T315I
In short: as §1

[9] = test system: PANC-1 (Pac-1, human pancreatic cancer cells); assay: MTT cancer cell growth inhibition; assay type: cell-based; settings: Homo sapiens, PANC-1, 72 h, MTT, 72 hours incubation, read-out: GI50 PAN
In short: as §1

[10] = test system: Hela (human cervical cancer cells); assay: MTT cancer cell growth inhibition; assay type: cell-based; settings: Homo sapiens, HeLa, 72 h, MTT, 72 hours incubation, read-out: GI50 Hela
In short: as §1

[11] = test system: lncap (prostate cancer cells); assay: MTT cancer cell growth inhibition; assay type: cell-based; settings: Homo sapiens, LNCaP, 72 h, MTT, 72 hours incubation, read-out: GI50 lnca
In short: as §1

[12] = test system: KBM-5 (human chronic myelogenous leukemia); assay: MTT cancer cell growth inhibition; assay type: cell-based; settings: Homo sapiens, KBM5, 72 h, MTT, 72 hours incubation, KBM-5 cells; read-out: GI50 KBM-5
In short: as §1

[13] = test system: SGC-7901 (human gastric cancer cells); assay: MTT cancer cell growth inhibition; assay type: cell-based; settings: Homo sapiens, SGC-7901, 72 h, MTT, 72 hours incubation, SGC-7901 cells; read-out: GI50 SGC-7901
In short: as §1

[14] = test system: MOLT-4 (human acute lymphoblastic leukemia cells); assay: MTT cancer cell growth inhibition; assay type: cell-based; settings: Homo sapiens, MOLT-4, 72 h, MTT, 72 hours incubation, read-out: GI50 Mol
In short: as §1

[15] = test system: DU145 (human prostate cancer cells); assay: MTT cancer cell growth inhibition; assay type: cell-based; settings: Homo sapiens, DU-145, 72 h, MTT, 72 hours incubation, read-out: GI50 Du1
In short: as §1

[16] = test system: MCF-7 (human breast cancer cells); assay: MTT cancer cell growth inhibition; assay type: cell-based; settings: Homo sapiens, MCF7, 72 h, 72 hours incubation, read-out: GI50 MCF
In short: as §1

[17] = test system: BGC-823 (human gastric cancer cells); assay: MTT cancer cell growth inhibition; assay type: cell-based; settings: Homo sapiens, BGC-823, 72 h, MTT, 72 hours incubation, read-out: GI50 BG
In short: as §1

[18] = test system: HT1080 (human fibrosarcoma cells); assay: MTT cancer cell growth inhibition; assay type: cell-based; settings: Homo sapiens, HT-1080, 72 h, MTT, 72 hours incubation, read-out: GI50 HT1
In short: as §1

[19] = test system: H1975 (non-small cell lung adenocarcinoma); assay: MTT cancer cell growth inhibition; assay type: cell-based; settings: Homo sapiens, NCI-H1975, 72 h, MTT, 72 hours incubation, H1975 cells; read-out: GI50 H1975
In short: as §1

[20] = test system: U937 (human leukemia cells); assay: MTT cancer cell growth inhibition; assay type: cell-based; settings: Homo sapiens, U-937, 72 h, MTT, 72 hours incubation, read-out: GI50 U93
In short: as §1

HDAC7 = target: T1, HDAC7 (Homo sapiens, UniProt Q8WUI4); assay: HDAC biochemical activity measurement (fluorescent substrate deacetylation);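 note: fluorogenic deacetylation assay using acetyl-lysine substrate at 20 µM, enzyme and compound incubated 30 min at 37 °C, then developer added, fluorescence read at 360/460 nm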; settings: HDAC7; 37° C. 30 minutes
T1 sequence (Q8WUI4 1-952): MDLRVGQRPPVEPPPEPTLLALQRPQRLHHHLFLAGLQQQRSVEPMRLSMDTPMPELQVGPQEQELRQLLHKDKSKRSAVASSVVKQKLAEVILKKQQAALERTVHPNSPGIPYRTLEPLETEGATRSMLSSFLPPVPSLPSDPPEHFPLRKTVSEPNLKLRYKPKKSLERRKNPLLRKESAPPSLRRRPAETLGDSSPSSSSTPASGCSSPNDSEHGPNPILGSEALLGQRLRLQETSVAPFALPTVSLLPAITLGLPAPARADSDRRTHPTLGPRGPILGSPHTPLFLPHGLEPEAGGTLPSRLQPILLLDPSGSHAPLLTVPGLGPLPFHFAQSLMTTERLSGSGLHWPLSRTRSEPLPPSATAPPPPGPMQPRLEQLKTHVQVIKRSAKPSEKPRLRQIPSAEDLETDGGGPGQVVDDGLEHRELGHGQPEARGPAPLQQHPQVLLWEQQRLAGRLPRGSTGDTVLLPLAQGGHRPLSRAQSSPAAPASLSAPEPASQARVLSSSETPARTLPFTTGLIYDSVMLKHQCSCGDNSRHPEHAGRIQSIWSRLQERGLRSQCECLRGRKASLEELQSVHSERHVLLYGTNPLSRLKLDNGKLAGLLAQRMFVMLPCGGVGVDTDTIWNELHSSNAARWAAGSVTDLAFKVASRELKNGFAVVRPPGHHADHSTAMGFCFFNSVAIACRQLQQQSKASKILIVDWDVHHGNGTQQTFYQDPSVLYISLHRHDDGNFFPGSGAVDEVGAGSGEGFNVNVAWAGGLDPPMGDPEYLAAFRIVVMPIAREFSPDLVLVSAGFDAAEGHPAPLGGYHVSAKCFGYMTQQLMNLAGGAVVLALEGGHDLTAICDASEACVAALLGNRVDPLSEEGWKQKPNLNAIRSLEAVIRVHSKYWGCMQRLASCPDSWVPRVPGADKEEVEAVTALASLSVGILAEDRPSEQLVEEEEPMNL

Compound	GI50 [1] [nM]	GI50 [2] [nM]	GI50 [3] [nM]	GI50 [4] [nM]	GI50 [5] [nM]	GI50 [6] [nM]	GI50 [7] [nM]	GI50 [8] [nM]	GI50 [9] [nM]	GI50 [10] [nM]	GI50 [11] [nM]	GI50 [12] [nM]	GI50 [13] [nM]	GI50 [14] [nM]	GI50 [15] [nM]	GI50 [16] [nM]	GI50 [17] [nM]	GI50 [18] [nM]	GI50 [19] [nM]	IC50 HDAC7 (HDAC7)	other results
C/C=C1\NC(=O)c2cc(F)cc(n2)CNC(=O)C[C@@H](/C=C/CCS)OC(=O)[C@H](Cc2ccc(O)cc2)NC1=O [Compound 129]	42	41	38	41	21	22	80	42	50	40	70	35	33	60	30	30	30	130	33	no activity	GI50 [20]: 10 nM
CC(=O)SCC/C=C/[C@@H]1CC(=O)NCc2nc(ccc2F)C(=O)NC(=C(C)C)C(=O)N[C@@H](C(C)C)C(=O)O1 [Compound 89]	16	83	31	31	13	83	30	38	80	90	30	93	34	30	10	30	10	80	26	no activity	GI50 [20]: 20 nM
C/C=C1\NC(=O)c2ccc(SC)c(n2)CNC(=O)C[C@@H](/C=C/CCSC(C)=O)OC(=O)[C@H](CCCCN)NC1=O [Compound 194]	29	27	84	27	36	35	–	25	–	–	–	51	43	–	–	–	–	–	23	no activity	GI50 ([7]; A549 cells): 30 nM; GI50 ([9]; PANC-1 cells): 40 nM; GI50 ([10]; Hela cells): 50 nM; GI50 ([11]; lncap cells): 20 nM; GI50 ([14]; MOLT-4 cells): 30 nM; GI50 ([15]; DU145 cells): 30 nM; GI50 ([16]; MCF-7 cells): 40 nM; GI50 ([17]; BGC-823 cells): 50 nM; GI50 ([18]; HT1080 cells): 10 nM; GI50 ([20]; U937 cells): 60 nM
C/C=C1\NC(=O)c2cc(F)cc(n2)CNC(=O)C[C@@H](/C=C/CCS)OC(=O)[C@H](CCCCNC(=O)OCC2c3ccccc3-c3ccccc32)NC1=O [Compound 121]	38	26	45	75	23	42	210	23	70	50	110	46	33	30	30	20	190	70	28	no activity	GI50 [20]: 60 nM

More lines, main results first:

GI50 [1] [nM]	GI50 [2] [nM]	GI50 [3] [nM]	GI50 [4] [nM]	GI50 [5] [nM]	GI50 [6] [nM]	GI50 [7] [nM]	GI50 [8] [nM]	GI50 [9] [nM]	GI50 [10] [nM]	GI50 [11] [nM]	GI50 [12] [nM]	GI50 [13] [nM]	GI50 [14] [nM]	GI50 [15] [nM]	GI50 [16] [nM]	GI50 [17] [nM]	GI50 [18] [nM]	GI50 [19] [nM]	IC50 HDAC7 (HDAC7)	Compound	other results
34	91	77	87	33	29	270	37	80	910	50	43	29	70	70	1210	90	60	63	no activity	C/C=C1\NC(=O)c2cccc(n2)CNC(=O)C[C@@H](/C=C/CCS)OC(=O)[C@H](C)NC1=O [Example 29]	GI50 [20]: 450 nM
27	93	62	92	38	33	15400	29	550	67700	700	59	29	300	1300	53600	3300	39200	42	no activity	C/C=C1\NC(=O)c2cccc(n2)CNC(=O)C[C@@H](/C=C/CCSC(C)=O)OC(=O)[C@@H](C)NC1=O [Example 25]	GI50 [20]: 2290 nM
74	57	41	43	65	41	–	41	–	–	–	36	26	–	–	–	–	–	35	no activity	C/C=C1\NC(=O)c2cc(SC)cc(n2)CNC(=O)C[C@@H](/C=C/CCSC(C)=O)OC(=O)[C@@H](C)NC1=O [Compound 221]	GI50 ([7]; A549 cells): 20 nM; GI50 ([9]; PANC-1 cells): 50 nM; GI50 ([10]; Hela cells): 30 nM; GI50 ([11]; lncap cells): 20 nM; GI50 ([14]; MOLT-4 cells): 70 nM; GI50 ([15]; DU145 cells): 50 nM; GI50 ([16]; MCF-7 cells): 80 nM; GI50 ([17]; BGC-823 cells): 50 nM; GI50 ([18]; HT1080 cells): 80 nM; GI50 ([20]; U937 cells): 70 nM
